Test results taken from ChEMBL document CHEMBL1201862, “PubChem BioAssay data set” (2004).
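Growth conditions: 96-well plates. Treatment: test compound, 48 hours, 5 concentrations. Analysis: linear interpolation between bracketing concentrations; unreached endpoints set to highest concentration. Abbreviation: GI50, concentration required for 50% inhibition of growth.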 The source made the active and inactive calls. Rule as the data show it: active = GI50 up to about 1.1 µM and inactive = higher.

What was measured:
Test in all cases: NCI-60 cell line screen, 48 h
A498 = system: A498
A549 = system: A549
BT-549 = system: BT-549
DMS-114 = system: DMS-114
DU-145 = system: DU-145
HOP-18 = system: HOP-18
HOP-62 = system: HOP-62
HOP-92 = system: HOP-92
Hs-578T = system: Hs-578T
K562 = system: K562
M14 = system: M14
MDA-MB-231 = system: MDA-MB-231
NCI-H226 = system: NCI-H226
NCI-H460 = system: NCI-H460
OVCAR-4 = system: OVCAR-4
OVCAR-8 = system: OVCAR-8
SF-295 = system: SF-295
SK-MEL-5 = system: SK-MEL-5
SK-OV-3 = system: SK-OV-3
SN12C = system: SN12C

| SMILES | GI50 (A498) | GI50 (A549) | GI50 (BT-549) | GI50 (DMS-114) | GI50 (DU-145) | GI50 (HOP-18) | GI50 (HOP-62) | GI50 (HOP-92) | GI50 (Hs-578T) | GI50 (K562) | GI50 (M14) | GI50 (MDA-MB-231) | GI50 (NCI-H226) | GI50 (NCI-H460) | GI50 (OVCAR-4) | GI50 (OVCAR-8) | GI50 (SF-295) | GI50 (SK-MEL-5) | GI50 (SK-OV-3) | GI50 (SN12C) |
| --- | --- | --- | --- | --- | --- | --- | --- | --- | --- | --- | --- | --- | --- | --- | --- | --- | --- | --- | --- | --- |
| O=C(NC(=O)c1ccccc1[N+](=O)[O-])Nc1ccc(Oc2ncc(Br)cn2)c(Cl)c1 | 0.0225 µM (active) | 0.0428 µM (active) | 0.0703 µM (active) | < 0.0184 µM (active) | 0.0318 µM (active) | 0.064 µM (active) | 0.0249 µM (active) | 0.0495 µM (active) | 0.0342 µM (active) | 0.0194 µM (active) | < 0.016 µM (active) | 0.0469 µM (active) | 0.0148 µM (active) | 0.0252 µM (active) | 0.0284 µM (active) | 0.0301 µM (active) | 0.0137 µM (active) | 0.0224 µM (active) | 0.0269 µM (active) | 0.0398 µM (active) |
| Cc1cc(=O)n2c3c(c4c(cc13)c(CO)cc(=O)n4C)OC2 | 14.6 µM (inactive) | 36.1 µM (inactive) | – | 14.1 µM (inactive) | – | 19.5 µM (inactive) | 13 µM (inactive) | 24.4 µM (inactive) | – | 5.56 µM (inactive) | 20.6 µM (inactive) | – | 5.22 µM (inactive) | 18 µM (inactive) | 17.5 µM (inactive) | 6.67 µM (inactive) | 30.3 µM (inactive) | 20.1 µM (inactive) | 20 µM (inactive) | 12.9 µM (inactive) |
| O=C(O)CCSC(=O)Nc1ccccc1Cl | 60 µM (inactive) | > 100 µM (inactive) | – | > 100 µM (inactive) | – | > 100 µM (inactive) | > 100 µM (inactive) | > 100 µM (inactive) | – | > 100 µM (inactive) | > 100 µM (inactive) | – | > 100 µM (inactive) | > 100 µM (inactive) | > 100 µM (inactive) | > 100 µM (inactive) | > 100 µM (inactive) | > 100 µM (inactive) | > 100 µM (inactive) | > 100 µM (inactive) |
